Source: paper PMC7949139, “The molecular basis of OH-PCB estrogen receptor activation” (The Journal of Biological Chemistry, 2021)
Where a chain is given by its changes, count along the chain named. Names may count otherwise. Read-outs that look alike come from different tables or passages of the source. Marks after values point to notes of the source that are not given here.

Legend:
WT SULT1E1 = target: T1, WT SULT1E1 (Homo sapiens, UniProt P49888); experiment: Initial-rate studies (1-HP sulfonation; OH-PCB inhibition), WT enzyme; assay type: biochemical; details: compared with ER-activation EC50 values; read-out: Ki values (SULT1E1)
T1 construct: E. coli codon-optimized SULT1E1 coding region inserted into the PreScission Protease cleavage site; His/GST/MBP triple tag (N, cleaved yes); made in house; host or cells: E. coli BL21(DE3)
T1 sequence (P49888 1-294): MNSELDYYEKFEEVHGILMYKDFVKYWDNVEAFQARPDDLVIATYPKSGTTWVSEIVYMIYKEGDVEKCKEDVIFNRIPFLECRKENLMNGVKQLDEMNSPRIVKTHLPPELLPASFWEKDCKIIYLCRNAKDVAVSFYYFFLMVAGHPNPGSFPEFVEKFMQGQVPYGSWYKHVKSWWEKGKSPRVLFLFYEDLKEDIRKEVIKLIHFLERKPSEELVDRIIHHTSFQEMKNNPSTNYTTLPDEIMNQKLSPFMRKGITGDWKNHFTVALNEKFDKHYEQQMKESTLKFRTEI
Description: (§1) C. Reaction progress was monitored via the fluorescence change associated with 1-HP sulfonation (λex = 325 nm, λem = 370 nm ([51], [52])). Initial rates were measured during conversion to product of ≤5% of the concentration-limiting substrate consumed at the reaction endpoint. Velocities were determined in triplicate. Km and kcat were obtained by (1/v^4)-weighted least-squares fitting of the averaged data in double-reciprocal space (i.e., 1/v versus 1/[S]) ([66], [67]).
(§2) Inhibition studies were performed as described above except: 1-HP was fixed (2.0 μM, 100 × Km), OH-PCBs were added (0.20–20 × Ki), and SULT1E1 was 0.20 nM (active sites). Ki was determined by least-squares fitting to a noncompetitive inhibition model ([66], [67]).

SULT1E1 [1] = target: T2, SULT1E1 (Homo sapiens, UniProt P49888); experiment: Equilibrium binding studies (SULT1E1 intrinsic fluorescence); details: for Kd: pH 7.4, 25 °C, spread = one SD
T2 construct: E. coli codon-optimized SULT1E1 coding region inserted into the PreScission Protease cleavage site; His/GST/MBP triple tag (N, cleaved yes); made in house; host or cells: E. coli BL21(DE3)
T2 sequence (P49888 1-294): T1 sequence (P49888 1-294)
Description: The binding of inhibitors to WT and mutant SULT1E1 was monitored via ligand-induced changes in the intrinsic fluorescence of the enzyme (λex= 290 nm, λem= 340 nm) ([4]). […] C. Titrations were performed in triplicate and the averaged data were least-squares fit to the following quadratic, single-site binding model: Io − ΔI∙(([L]+Etot + Kd) − [([L]+Etot + Kd)^2 − (4∙[L]∙Etot)]^1/2)/2∙Etot, where Io and ΔI represent fluorescent intensity at zero and infinite [L].

SULT1E1 [2] = target: T2, SULT1E1; design: method as in PMID 10803601; details: read-out: Ki (SULT1E1 inhibition); cited from earlier work
[3] = system: estrogen receptor (ER) activation in (-) SULT1E1 control Ishikawa cells; experiment: Estrogen receptor activation (alkaline phosphatase activity), control strain; assay type: cell-based; details: Homo sapiens, read-out: Ligand EC50, ER activation
Description: (§3) pcDNA 3.1 constructs harboring either the SULT1E1 WT or double mutant (F75A/F80A) coding regions were generated using Gibson Assembly ([74]). The vectors were linearized using BGIII. Ishikawa cells were grown at 37 °C ± 2 deg. C in growth medium (MEM media containing 10% v/v FBS). At confluence, the cells were washed (3×) with PBS media before coating with an Opti-MEM solution containing a linearized construct (50 ng μg^−1) and lipofectamine (2.5 units ml^−1). After 24 h at 37 °C ± 2 deg. C, cells were washed (3×) with PBS before adding growth medium containing neomycin (400 μg ml^−1) to select transfectants. Selective growth medium was replenished every 48 h until single colonies could be isolated (∼3–6 weeks). Single colonies were transferred using trypsin digest (0.05%) to 12-well plates and grown at 37 °C ± 2 deg. C to confluence for further experimentation and storage.
(§4) Transfected Ishikawa cells were grown at 37 °C ± 2 deg. C to 60 to 70% confluency in MEM containing 10% v/v FBS. Cells were then transferred to 96-well tissue culture plates and grown at 37 °C ± 2 deg. C to 80% confluency in MEM containing 10% v/v charcoal filtered FBS. The plate was then washed with PBS and grown at 37 °C ± 2 deg. C for 24 h in MEM without FBS. Estradiol (0–3.0 μM) and OH-PCB (0–1.0 μM) solubilized in neat DMSO were added and cells were incubated at 37 °C ± 2 deg. C for 5 days. The final concentrations of DMSO were ≤0.10%. Cells were then washed twice with PBS before adding pNpp (5.0 mM) in PBS ([75]). Following incubation with pNpp for 3 h at 25 °C ± 2 deg. C, wells were read at 405 nm using a Synergy HT BioTek Plate Reader.

[4] = system: estrogen receptor (ER) activation in Ishikawa cells expressing F75A/F80A SULT1E1; experiment: cells; assay type: cell-based, human; details: for EC50: Homo sapiens, Ishikawa, read-out: Ligand EC50, ER activation
Description: as §3, §4

[5] = system: estrogen receptor (ER) activation in Ishikawa cells expressing WT SULT1E1; experiment: cells; assay type: cell-based, human; details: for EC50: Homo sapiens, Ishikawa, read-out: Ligand EC50, ER activation
Description: as §3, §4

SULT1E1 [6] = target: T2, SULT1E1; design: method as in PMID 9556564; details: E2 as substrate; cited from earlier work
[7] = substrate: Oc1ccc2ccc3cccc4ccc1c2c34; experiment: Initial-rate studies (1-HP sulfonation; OH-PCB inhibition), WT enzyme; assay type: biochemical, human; details: other: WT, PAPS 0.30 mM, pH 7.5, 25 °C, parentheses = one SD
Description: as §1, §2

[8] = substrate: C[C@]12CC[C@@H]3c4ccc(O)cc4CC[C@H]3[C@@H]1CC[C@@H]2O; experiment: E2 sulfonation initial-rate assay ([3H]-E2), WT; assay type: biochemical, human; details: other: WT, [3H]-E2, PAPS 0.30 mM, pH 7.5, 25 °C, parentheses = one SD
Description: (§5) SULT1E1-catalyzed conversion of [^3H]-E2 to [^3H]-E2-sulfate was quantitated as previously described ([68]). […] C. […] The reaction mixture was diluted tenfold with an E2 (10 μM), KPO4 (50 mM), pH 7.5 solution, and brought to pH 7.0 with HCl (6.0 N). The reaction was then mixed (1:1 v/v) with neat chloroform and centrifuged (15,000g, 5.0 min). The aqueous layer was removed, chloroform was extracted twice more, and radioactivity in the aqueous layer was then determined by liquid scintillation counting. Reactions were performed in triplicate and Km and kcat were obtained by (1/v^4)-weighted least-squares fitting of the data in double-reciprocal space (i.e., 1/v versus 1/[S]) ([67]).

[9] = substrate: Oc1ccc2ccc3cccc4ccc1c2c34; experiment: Initial-rate studies (1-HP sulfonation; OH-PCB1 inhibition), F80A mutant; assay type: biochemical, human; details: other: F80A; parentheses = one SD; pH 7.5; 25.0 °C
Description: as §1, §2

[10] = substrate: Oc1ccc2ccc3cccc4ccc1c2c34; experiment: Initial-rate studies (1-HP sulfonation; OH-PCB1 inhibition), Y239A mutant; assay type: biochemical, human; details: other: Y239A; parentheses = one SD; pH 7.5; 25.0 °C
Description: as §1, §2

[11] = substrate: Oc1ccc2ccc3cccc4ccc1c2c34; experiment: Initial-rate studies (1-HP sulfonation; OH-PCB1 inhibition), double mutant; assay type: biochemical, human; details: other: F80A/F75A; parentheses = one SD; pH 7.5; 25.0 °C
Description: as §1, §2

[12] = substrate: C[C@]12CC[C@@H]3c4ccc(O)cc4CC[C@H]3[C@@H]1CC[C@@H]2O; experiment: E2 sulfonation initial-rate assay ([3H]-E2), double mutant; assay type: biochemical, human; details: other: F80A/F75A; parentheses = one SD; 25.0 °C
Description: as §5

[13] = substrate: Oc1ccc2ccc3cccc4ccc1c2c34; experiment: Initial-rate studies (1-HP sulfonation; OH-PCB1 inhibition), F75A mutant; assay type: biochemical, human; details: other: F75A; parentheses = one SD; pH 7.5; 25.0 °C
Description: as §1, §2

Oc1c(Cl)cc(-c2ccc(Cl)c(Cl)c2)cc1Cl [OH-PCB2, 4-OH-3,3',4',5-tetrachlorobiphenol]
Ki (WT SULT1E1): 0.5 nM
Kd (SULT1E1 [1]; E2 4.0 μM (higher partner concentration), PAP 300 μM, read-out: Kd, ligand binding to enzyme species E⋅PAP⋅E2): 0.4 nM
Kd (SULT1E1 [1]; free enzyme E, read-out: Kd, ligand binding to enzyme species E): 7.2 nM
Ki (SULT1E1 [2]): ~0.4 nM
EC50 [3]: > 1000 nM
EC50 [4]: > 1000 nM
EC50 [5]: 0.87 nM

C[C@]12CC[C@@H]3c4ccc(O)cc4CC[C@H]3[C@@H]1CC[C@@H]2O [E2, 17-Beta-estradiol]
Kd (SULT1E1 [1]; OH-PCB1 10 μM, PAP 300 μM, read-out: Kd, ligand binding to enzyme species E⋅PAP⋅OH-PCB1): 0.98 nM
Kd (SULT1E1 [1]; OH-PCB2 7.0 μM (higher partner concentration), PAP 0.30 mM, read-out: Kd, ligand binding to enzyme species E⋅PAP⋅OH-PCB2): 1.1 nM

B1: WT SULT1E1 (Homo sapiens) (protein)
chain: T1 sequence (P49888 1-294)
notes: E. coli codon-optimized SULT1E1 coding region inserted into the PreScission Protease cleavage site; His/GST/MBP triple tag (N, cleaved yes); made in house; host or cells: E. coli BL21(DE3)
Km [7]: 25 (2.2) ^c nM
kcat [7]: 0.633 s⁻¹
Km [8]: 3.8 (0.2) ^a nM
kcat [8]: 2.5 s⁻¹

B2: SULT1E1 F80A (Homo sapiens; F80A) (protein)
chain: T1 sequence (P49888 1-294) with F80A
notes: as for B1
Km [9]: 23 (1.8) nM
kcat [9]: 0.583 s⁻¹

B3: SULT1E1 Y239A (Homo sapiens; Y239A) (protein)
chain: T1 sequence (P49888 1-294) with Y239A
notes: as for B1
Km [10]: 25 (2.3) nM
kcat [10]: 0.633 s⁻¹

B4: SULT1E1 F80A/F75A (Homo sapiens; F75A/F80A) (protein)
chain: T1 sequence (P49888 1-294) with F75A, F80A
notes: as for B1
Km [11]: 28 (2.2) nM
kcat [11]: 0.583 s⁻¹
Km [12]: 4.0 (0.2) nM
kcat [12]: 2.5 s⁻¹

B5: SULT1E1 F75A (Homo sapiens; F75A) (protein)
chain: T1 sequence (P49888 1-294) with F75A
notes: as for B1
Km [13]: 27 (1.7) nM
kcat [13]: 0.6 s⁻¹
